Laboratory results as given in paper PMC3277506, “Extra-Renal Elimination of Uric Acid via Intestinal Efflux Transporter BCRP/ABCG2” (PLoS ONE, 2012).
Values joined by “and” are separate entries in the source; they are usually repeats but may differ in a detail not shown here. Identical values can stand only once.

What was measured:
[1] = Clearance of endogenous uric acid (urine, bile, estimated intestine) in oxonate-treated rats; format: in vivo, rat
Procedure: (§1) Male Wistar rats (280±30 g body weight) used in the present study were treated with potassium oxonate, a uric acid oxidase (uricase) inhibitor. Oxonate-treated rats were established as described previously, [48]. Briefly, rats were anesthetized with 50% urethane (2 mL/kg) and infused with 0.9% NaCl, 0.5% oxonate and 4% mannitol solution from the femoral vein at the flow rate of 3 mL/hr. As a bolus, 0.9% NaCl, 1.5% oxonate and 4% mannitol solution was administered from the jugular vein at 6 mL/kg. After equilibration for 80 min, blood, urine and bile samples were collected at 20-min intervals. When [^14C]uric acid (2 µCi/rat) was used, it was intravenously injected from the jugular vein after oxonate treatment for 80 min. In order to suppress the uricolysis of [^14C]uric acid by intestinal flora, animals received orally non-absorbed antibiotics, polymyxin B, kanamycin, and vancomycin at daily doses of 50, 50 and 20 mg/kg, respectively, for 7 days before this animal study. Urine and bile were collected at 20-min intervals, and blood samples were drawn at 1, 5, 10, 20, 40, 60, 80, 100 and 120 min. Urine and bile were collected from bladder and bile ducts, respectively, and blood from the jugular vein. In mice, urine was collected for 24 hours by using metabolic cages (Natsume, Tokyo, Japan).
(§2) The following equation was used to calculate intestinal secretory clearance (µL/min/cm loop) and estimated total intestinal secretory clearance (CLintestine, estimated) (mL/min): [drawing 1] [drawing 2] [drawing 3] where A is the amount of uric acid secreted into the intestinal lumen of each loop for 60 min, L is the length of the intestine, and AUC is area under the plasma concentration-time curve.
Concentrations of uric acid in plasma, urine, bile, and intestinal content were analyzed by means of HPLC. Briefly, 80 µL 0.41% HClO4 was added to 40 µL of sample and mixed well. The sample was kept 4°C for 30 min. An aliquot was centrifuged at 15,000 rpm for 5 min at 4°C to separate denatured proteins. […] Uric acid was detected at 284 nm. […]

[2] = Plasma uric acid, intestinal and renal clearance in oxonate-treated wild-type and Bcrp1 knockout mice; format: in vivo; details: for Intestinal secretory clearance of endogenous uric acid / Renal clearance of endogenous uric acid: oxonate-treated; for Intestinal secretory clearance of endogenous uric acid: ileum closed loop; for Renal clearance of endogenous uric acid: metabolic cages
Procedure: as §1
Mice were treated with oxonate (intraperitoneal injection of 200 mg/kg oxonate in 1% arabic gum solution) at 1 hr before injection of PB solution into the intestinal loop. Blood was withdrawn from the jugular vein at 1, 30 and 60 min. At 60 min, the intestinal luminal content was collected for measurement of intestinally secreted uric acid.
as §2

## O=c1[nH]c(=O)c2[nH]c(=O)[nH]c2[nH]1 [uric acid]
[1]; from closed loop clearance and intestinal length
  CLintestine, estimated (total intestinal secretory clearance): 0.15 mL/min
[1]; male, Wistar, rat, urine (relative to plasma AUC), up to 60 min, amount excreted / plasma AUC, read-out: CLrenal of endogenous uric acid
  CL renal: 0.5 ± 0.06 mL/min
[1]; up to 60 min, amount excreted / plasma AUC
  CLbile of endogenous uric acid: 0.02 mL/min and 0.02 ± 0.002 mL/min
[2]; Bcrp1−/− mice
  Intestinal secretory clearance of endogenous uric acid: 0.61 ± 0.08 µL/min/cm
  Renal clearance of endogenous uric acid: 16.0 ± 1.77 µL/min
[2]; after oxonate treatment
  Plasma uric acid level in Bcrp1−/− mice compared with wild-type mice: much higher
[2]; wild-type mice
  Intestinal secretory clearance of endogenous uric acid: 1.04 ± 0.11 µL/min/cm
  Renal clearance of endogenous uric acid: 23.5 ± 1.42 µL/min
